Measurements taken from ChEMBL document CHEMBL1909046, “DrugMatrix in vitro pharmacology data”.

Key:
[1] = biological target: T1, Alpha-1A adrenergic receptor (Rattus norvegicus, UniProt P43140); test: DRUGMATRIX: Alpha-1A adrenergic receptor radioligand binding (ligand: prazosin); format: cell membranes, Wistar, Submaxillary gland, Membrane; conditions: Not Active = under 50% inhibition at 10 µM
T1 sequence (P43140 whole entry): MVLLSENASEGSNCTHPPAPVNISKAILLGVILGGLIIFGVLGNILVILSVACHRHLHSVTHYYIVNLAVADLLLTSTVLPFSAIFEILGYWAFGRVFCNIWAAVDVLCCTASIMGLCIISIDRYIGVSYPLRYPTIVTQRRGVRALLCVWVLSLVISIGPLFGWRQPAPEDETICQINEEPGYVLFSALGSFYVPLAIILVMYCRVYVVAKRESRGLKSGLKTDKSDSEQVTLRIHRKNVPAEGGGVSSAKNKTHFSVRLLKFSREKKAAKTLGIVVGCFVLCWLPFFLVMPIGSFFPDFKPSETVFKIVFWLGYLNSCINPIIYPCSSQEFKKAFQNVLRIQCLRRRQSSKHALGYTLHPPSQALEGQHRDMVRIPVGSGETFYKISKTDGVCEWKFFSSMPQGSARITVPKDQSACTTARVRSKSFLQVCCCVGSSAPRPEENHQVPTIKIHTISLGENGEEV

[2] = DRUGMATRIX: Calcium Channel Type L, Dihydropyridine radioligand binding (ligand: [3H] Nitrendipine); format: cell membranes, Rattus norvegicus, Wistar, Cerebral cortex, Membrane; conditions: Not Active = under 50% inhibition at 10 µM
[3] = biological target: T2, 5-hydroxytryptamine receptor 2C (Homo sapiens, UniProt P28335); test: DRUGMATRIX: Serotonin (5-Hydroxytryptamine) 5-HT2C radioligand binding (ligand: [3H] Mesulergine); format: cell membranes, CHO-K1, Membrane; conditions: Not Active = under 50% inhibition at 10 µM
T2 sequence (P28335 whole entry): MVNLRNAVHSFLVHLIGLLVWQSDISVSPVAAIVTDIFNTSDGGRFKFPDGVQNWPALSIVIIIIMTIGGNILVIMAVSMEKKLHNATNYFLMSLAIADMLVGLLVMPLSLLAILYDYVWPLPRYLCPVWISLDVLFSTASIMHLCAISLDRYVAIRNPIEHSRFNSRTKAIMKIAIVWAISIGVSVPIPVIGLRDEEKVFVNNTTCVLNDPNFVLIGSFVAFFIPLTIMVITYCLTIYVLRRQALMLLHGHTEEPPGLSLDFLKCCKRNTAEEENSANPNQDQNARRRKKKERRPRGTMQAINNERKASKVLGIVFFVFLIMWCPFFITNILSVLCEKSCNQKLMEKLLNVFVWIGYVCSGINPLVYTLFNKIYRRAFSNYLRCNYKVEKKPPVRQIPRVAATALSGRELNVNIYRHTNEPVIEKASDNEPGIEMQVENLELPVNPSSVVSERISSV

[4] = biological target: C-C chemokine receptor type 5 (Homo sapiens, UniProt P51681); format: cell membranes, Membrane; conditions: hek293; note: in other assays of this panel Not Active means under 50% inhibition at 10 µM
[5] = DRUGMATRIX: Leukotriene, BLT (LTB4) radioligand binding (ligand: [3H]LTB4); format: cell membranes, Membrane; conditions: u-937; Not Active = under 50% inhibition at 10 µM
[6] = biological target: T3, Amine oxidase [flavin-containing] A (Homo sapiens, UniProt P21397); test: DRUGMATRIX: Monoamine Oxidase MAO-A enzyme inhibition (substrate: Kynuramine); design: species or system BTI-TN-5B1-4; conditions: bti-tn-5b1-4; Not Active = under 50% inhibition at 10 µM
T3 sequence (P21397 whole entry): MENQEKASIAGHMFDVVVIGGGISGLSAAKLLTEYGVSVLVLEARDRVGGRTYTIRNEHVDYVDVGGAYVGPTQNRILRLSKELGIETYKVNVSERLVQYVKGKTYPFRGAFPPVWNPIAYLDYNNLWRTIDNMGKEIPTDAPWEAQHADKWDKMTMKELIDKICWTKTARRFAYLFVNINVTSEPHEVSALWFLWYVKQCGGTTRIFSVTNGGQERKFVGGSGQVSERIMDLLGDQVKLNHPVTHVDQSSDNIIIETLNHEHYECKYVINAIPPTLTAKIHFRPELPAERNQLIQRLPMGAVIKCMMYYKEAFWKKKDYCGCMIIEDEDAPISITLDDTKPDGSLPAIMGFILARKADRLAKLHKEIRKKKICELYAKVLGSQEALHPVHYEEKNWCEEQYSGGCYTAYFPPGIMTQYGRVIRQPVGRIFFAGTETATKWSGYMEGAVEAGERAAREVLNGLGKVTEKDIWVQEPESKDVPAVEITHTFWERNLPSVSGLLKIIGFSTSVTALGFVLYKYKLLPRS

[7] = biological target: T4, Neuropeptide Y receptor type 2 (Homo sapiens, UniProt P49146); format: cell membranes, Membrane; conditions: kan-ts; note: in other assays of this panel Not Active means under 50% inhibition at 10 µM
T4 sequence (P49146 whole entry): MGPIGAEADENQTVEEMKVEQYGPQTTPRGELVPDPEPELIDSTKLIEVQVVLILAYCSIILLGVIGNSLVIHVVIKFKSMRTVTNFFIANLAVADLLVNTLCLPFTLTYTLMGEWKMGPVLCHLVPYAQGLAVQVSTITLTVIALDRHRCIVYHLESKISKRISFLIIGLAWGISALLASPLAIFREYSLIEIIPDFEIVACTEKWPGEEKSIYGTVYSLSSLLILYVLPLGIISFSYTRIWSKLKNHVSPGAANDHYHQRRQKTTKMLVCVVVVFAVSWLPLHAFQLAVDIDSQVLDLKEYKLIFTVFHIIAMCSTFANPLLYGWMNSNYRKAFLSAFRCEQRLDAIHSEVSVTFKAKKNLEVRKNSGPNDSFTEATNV

Progesterone receptor = biological target: T5, Progesterone receptor (Bos taurus, UniProt Q690N0); test: DRUGMATRIX: Progesterone radioligand binding (ligand: [3H] R-5020); format: tissue-based, Uterus; conditions: Not Active = under 50% inhibition at 10 µM
T5 sequence (Q690N0 whole entry): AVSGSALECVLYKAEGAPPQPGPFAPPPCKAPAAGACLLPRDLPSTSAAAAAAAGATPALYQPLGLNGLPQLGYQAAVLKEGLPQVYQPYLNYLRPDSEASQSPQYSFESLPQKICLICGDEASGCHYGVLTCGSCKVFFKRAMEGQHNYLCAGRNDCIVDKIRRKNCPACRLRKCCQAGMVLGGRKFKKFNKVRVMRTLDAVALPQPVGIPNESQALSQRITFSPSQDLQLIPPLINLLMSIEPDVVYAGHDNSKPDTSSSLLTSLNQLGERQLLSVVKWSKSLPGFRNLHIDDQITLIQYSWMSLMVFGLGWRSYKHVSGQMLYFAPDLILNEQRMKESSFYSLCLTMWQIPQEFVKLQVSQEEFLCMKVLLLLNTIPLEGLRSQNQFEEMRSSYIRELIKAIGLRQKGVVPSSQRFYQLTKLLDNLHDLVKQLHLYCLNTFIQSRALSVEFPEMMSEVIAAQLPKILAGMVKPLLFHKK

[8] = biological target: Mitogen-activated protein kinase 3 (Homo sapiens, UniProt P27361); test: DRUGMATRIX: Protein Serine/Threonine Kinase, ERK1 enzyme inhibition (substrate: Myelin Basic Protein); design: species or system Escherichia coli; conditions: Not Active = under 50% inhibition at 10 µM
Adenosine receptor A2a = Adenosine receptor A2a (Homo sapiens, UniProt P29274); test: DRUGMATRIX: Adenosine A2A radioligand binding (ligand: […]); format: cell membranes, HEK293, Membrane; conditions: hek293; Not Active = under 50% inhibition at 10 µM
Sequence of Adenosine receptor A2a (P29274 whole entry): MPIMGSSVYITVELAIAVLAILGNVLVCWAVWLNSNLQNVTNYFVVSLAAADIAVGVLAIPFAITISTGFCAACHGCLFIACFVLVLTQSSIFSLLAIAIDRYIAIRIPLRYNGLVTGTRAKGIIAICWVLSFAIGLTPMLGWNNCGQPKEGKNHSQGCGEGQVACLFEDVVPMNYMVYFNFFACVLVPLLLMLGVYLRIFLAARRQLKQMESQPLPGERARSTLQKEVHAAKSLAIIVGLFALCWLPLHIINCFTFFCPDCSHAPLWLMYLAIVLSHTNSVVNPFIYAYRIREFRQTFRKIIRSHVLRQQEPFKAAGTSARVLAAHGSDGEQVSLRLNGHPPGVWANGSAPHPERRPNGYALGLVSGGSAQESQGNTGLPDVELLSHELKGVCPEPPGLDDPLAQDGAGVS

Sequence of C-C chemokine receptor type 5 (P51681 whole entry): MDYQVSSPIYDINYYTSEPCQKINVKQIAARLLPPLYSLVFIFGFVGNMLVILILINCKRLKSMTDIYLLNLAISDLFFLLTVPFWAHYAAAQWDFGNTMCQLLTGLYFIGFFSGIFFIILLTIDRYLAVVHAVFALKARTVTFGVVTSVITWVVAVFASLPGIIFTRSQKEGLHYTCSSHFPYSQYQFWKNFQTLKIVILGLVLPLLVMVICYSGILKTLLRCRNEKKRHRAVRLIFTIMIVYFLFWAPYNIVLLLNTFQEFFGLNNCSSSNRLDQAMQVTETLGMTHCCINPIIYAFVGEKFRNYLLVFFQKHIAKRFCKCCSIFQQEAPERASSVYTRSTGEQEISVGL
Sequence of Mitogen-activated protein kinase 3 (P27361 whole entry): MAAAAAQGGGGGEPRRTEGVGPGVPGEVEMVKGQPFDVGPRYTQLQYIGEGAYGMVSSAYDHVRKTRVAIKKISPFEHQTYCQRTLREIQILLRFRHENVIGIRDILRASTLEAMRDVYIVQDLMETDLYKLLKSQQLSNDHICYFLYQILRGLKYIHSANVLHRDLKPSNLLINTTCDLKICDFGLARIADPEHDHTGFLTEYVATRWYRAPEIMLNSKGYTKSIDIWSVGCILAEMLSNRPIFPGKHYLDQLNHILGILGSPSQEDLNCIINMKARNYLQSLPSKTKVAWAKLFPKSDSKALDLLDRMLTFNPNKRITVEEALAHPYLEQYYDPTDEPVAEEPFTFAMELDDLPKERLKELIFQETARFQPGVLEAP

Structure (SMILES)	IC50 [1]	IC50 [2]	Ki [2]	IC50 ([3]; cho-k1)	IC50 [4]	IC50 [5]	Ki [5]	IC50 [6]	IC50 [7]	IC50 (Progesterone receptor)	IC50 [8]	IC50 (Adenosine receptor A2a)	other results
C[C@](N)(Cc1ccc(O)cc1)C(=O)O [METYROSINE]	Not Active	Not Active	Not Active	Not Active	Not Active	Not Active	Not Active	Not Active	Not Active	Not Active	Not Active	Not Active	
Clc1ccc(C(c2ccccc2Cl)C(Cl)Cl)cc1 (stereo not given) [MITOTANE]	Not Active	Not Active	Not Active	Not Active	Not Active	Not Active	Not Active	Not Active	Not Active	Not Active	Not Active	Not Active	
COc1c(C)c2c(c(O)c1C/C=C(\C)CCC(=O)OCCN1CCOCC1)C(=O)OC2 [MYCOPHENOLATE MOFETIL]	Not Active	Not Active	Not Active	Not Active	Not Active	Not Active	Not Active	Not Active	Not Active	Not Active	Not Active	Not Active	
COC(=O)C1=C(C)NC(C)=C(C(=O)OC)C1c1ccccc1[N+](=O)[O-] [NIFEDIPINE]	Not Active				Not Active	Not Active	Not Active	Not Active	Not Active	Not Active	Not Active	Not Active	IC50 ([2]; read-out: IC50): 48 nM; Ki ([2]; read-out: Ki): 31 nM; IC50 ([3]; read-out: IC50): 18.3 µM; Ki ([3]; read-out: Ki): 9.57 µM
NNc1ccccc1 [PHENYLHYDRAZINE]	Not Active	Not Active	Not Active	Not Active	Not Active	Not Active	Not Active	Not Active	Not Active	Not Active	Not Active	Not Active	
CC(=O)[C@H]1CC[C@H]2[C@@H]3CCC4=CC(=O)CC[C@]4(C)[C@H]3CC[C@]12C [PROGESTERONE]	Not Active	Not Active	Not Active	Not Active	Not Active	Not Active	Not Active	Not Active	Not Active		Not Active	Not Active	IC50 (Progesterone receptor; read-out: IC50): 28 nM; Ki (Progesterone receptor; read-out: Ki): 3.62 nM
NC(=O)c1ncn([C@@H]2O[C@H](CO)[C@@H](O)[C@H]2O)n1 [RIBAVIRIN]	Not Active	Not Active	Not Active	Not Active	Not Active	Not Active	Not Active	Not Active	Not Active	Not Active	Not Active	Not Active	
O=[N+]([O-])c1cc([As](=O)(O)O)ccc1O [ROXARSONE]	Not Active	Not Active	Not Active	Not Active	Not Active	Not Active	Not Active	Not Active	Not Active	Not Active	Not Active	Not Active	Ki [1]: Not Active; Ki ([3]; cho-k1): Not Active; Ki [4]: Not Active; Ki [6]: Not Active; Ki [7]: Not Active; Ki (Progesterone receptor): Not Active; Ki [8]: Not Active; Ki (Adenosine receptor A2a): Not Active
CC[C@H]1OC(=O)[C@H](C)[C@@H](O[C@H]2C[C@@](C)(OC)[C@@H](O)[C@H](C)O2)[C@H](C)[C@@H](O[C@@H]2O[C@H](C)C[C@H](N(C)C)[C@H]2O)[C@](C)(O)C[C@@H](C)/C(=N\OCOCCOC)[C@H](C)[C@@H](O)[C@]1(C)O [ROXITHROMYCIN]	Not Active	Not Active	Not Active	Not Active	Not Active	Not Active	Not Active	Not Active	Not Active	Not Active	Not Active	Not Active	
NC(=O)c1ccccc1O [SALICYLAMIDE]	Not Active	Not Active	Not Active	Not Active	Not Active	Not Active	Not Active	Not Active	Not Active	Not Active	Not Active	Not Active	
